{"source": "patent US7749528B2", "about": "“Implantable and sealable medical device for unidirectional delivery of therapeutic agents to tissues” (priority 2001, dated 2010)", "key": {"[1]": {"conditions": "administered locally; cited from earlier work"}, "[2]": {"conditions": "cited from earlier work"}, "[3]": {"test": "Phase I study of the toxicity of local carboplatin", "assay_type": "in vivo", "conditions": "following 6 local injections of carboplatin", "protocol": "Protection Against Local Orbital or Periocular Toxicity: The periocular delivery of therapeutic agents is employed when increased amounts of the agent are needed inside the eye. In the case of advanced intraocular retinoblastoma, tumor cells in the vitreous gel are not exposed to sufficient amounts of the chemotherapeutic agents. For this reason, local periocular carboplatin is added to the regimen of systemic chemotherapy for advanced disease. […] Mulvihill et al. reported the complications associated with periocular injections of the chemotherapeutic agent carboplatin in infants with retinoblastoma. This emphasizes the need of a sealed system for unidirectional delivery of toxic agents to the eye."}, "[4]": {"conditions": "cited from earlier work", "remark": "listed apart in the source"}}}
{"smiles": "COc1cc([C@@H]2c3cc4c(cc3[C@@H](O[C@@H]3O[C@@H]5CO[C@@H](C)O[C@H]5[C@H](O)[C@H]3O)[C@H]3COC(=O)[C@H]23)OCO4)cc(OC)c1O", "note": "[Etoposide]", "values": [{"measurement": "local toxicity", "setting": "[1]", "value": "extremely toxic when administered locally"}]}
{"smiles": "CO[C@@H]1[C@H](N(C)C(=O)c2ccccc2)C[C@H]2O[C@]1(C)n1c3ccccc3c3c4c(c5c6ccccc6n2c5c31)C(=O)NC4", "note": "[PKC412]", "values": [{"measurement": "side effects when administered orally", "setting": "[2]; administered orally", "value": "nausea and diarrhea"}, {"measurement": "toxicity by the periocular route", "setting": "[2]; periocular route, simple injections", "value": "ocular irritation and toxicity was observed"}]}
{"smiles": "N.N.O=C([O-])C1(C(=O)[O-])CCC1.[Pt+2]", "note": "[carboplatin]", "values": [{"measurement": "long-term toxic effects", "setting": "[3]", "value": "atrophy of the orbital fat and connective tissue"}, {"measurement": "local tissue tolerance", "setting": "[4]; bolus injected into the periocular space", "value": "well tolerated by the local tissue"}, {"measurement": "complications after periocular injection", "setting": "[4]; periocular injections, after a certain period following the injection", "value": "ocular motility problems, including restriction of the eye movements"}]}
